The source of these data is US7345083B2, “Hydroisoindoline tachykinin receptor antagonists” (Merck & Co., Inc., priority 2004, dated 2008).

A word on the melting point: it is the temperature, or range, at which the solid turns liquid.

For the compound `C[C@@H](O[C@H]1CC[C@@H]2CN(C3=CC(=O)CC3)C[C@H]2[C@@H]1c1ccc(F)cc1)c1cc(C(F)(F)F)cc(C(F)(F)F)c1` [Example 7, 3-[(3aR,4R,5S,7aS)-5-{(1R)-1-[3,5-bis(Trifluoromethyl)phenyl]ethoxy}-4-(4-fluorophenyl)-octahydro-2H-isoindol-2-yl]cyclopent-2-en-1-one], the melting point lay in the range of 216.5 to 217.5 °C.
